Reference: patent US11484533B2, “Methods and compositions for treating obesity” (UNIVERSITY OF SOUTH CAROLINA, priority 2019, dated 2022)

What was measured:
macrophage CB1 = assay: BMDM treated in vitro with 3T3-L1 adipocyte conditioned medium and SR141716A; type: cell-based, mouse; conditions: adipocyte conditioned medium, vs DMSO
Procedure: TNF, IL-6, and IFNγ ELISA kits were purchased from BioLegend. Netrin-1 ELISA kits were purchased from USCN Life Science (Houston, Tex.). Concentrations were measured in cell supernatants using mouse standards according to the manufacturer's guidelines.
Next, to confirm that the M2 polarization and decreased ATM retention observed in HFD+SR treated mice was a direct effect of CB1 blockade and not a secondary effect due to weight loss or other factors, primary macrophages were treated in vitro with 3T3-L1 adipocyte conditioned media and SR141716A or DMSO vehicle control. […] These findings confirmed that blockade of macrophage CB1 signaling has anti-inflammatory effects.

obese patients = conditions: cited from earlier work
DIO mice [1] = assay: Diet-induced obesity (DIO) mice treated with SR141716A: body weight, caloric intake, DEXA body composition; type: in vivo, C57BL/6J male mice
Procedure: (§1) C57BL/6J male mice (Jackson Laboratory, Bar Harbor, Me.) were fed HFD consisting of 60% Kcal from fat (D12492, Research Diets Inc, New Brunswick, N.J.) for 12 weeks before starting the intervention treatment with SR141716A. Additionally, age-matched C57BL/6J male mice were fed a low fat diet (LFD) consisting of 10% Kcal from fat (D12450J, Research Diets Inc, New Brunswick, N.J.) to develop lean controls. SR141716A was obtained from NIDA and administered at a dose of 10 mg/kg daily by oral gavage for 4 weeks, beginning after 12 weeks of diet and ending after 16 weeks. A pair-fed control group was used (HFD-PFSR) in which food intake was restricted to the amount of daily food intake of the HFD+SR group. All mice were maintained in an AAALAC-accredited animal facility at the University of South Carolina, School of Medicine (Columbia, S.C.). All procedures were performed according to NIH guidelines under protocols approved by the Institutional Animal Care and Use Committee.
The body composition in mice was analyzed by dual-energy X-ray absorptiometry (DEXA, LUNAR, Madison, Wis.). The mice were anesthetized and placed in the prone position on the specimen tray to allow scanning of the entire body. For food intake measurements, mice were given a defined amount of large intact food pellet weekly, or daily for the HFD-PFSR group. Food weight was measured using a balance with a precision of 0.01 g. Solid food intake was corrected for any visible spillage.
To study the effects of CB1 antagonist on obesity parameters, DIO mice that were fed a 60% HFD for 12 weeks were treated with SR141716A (SR) by daily oral gavage for 4 weeks (FIG. 1A). All other experimental groups were treated with the vehicle (Veh) 0.1% Tween® 80. In addition to the HFD+SR group, other experimental groups included mice fed a 10% low-fat control diet (LFD) (LFD+Veh), ad-libitum HFD-fed mice (HFD+Veh), and HFD-fed mice that were pair-fed to the HFD+SR group (HFD-PFSR) (FIG. 1B). […] At the baseline of the study, the mice were stratified into groups balanced by mean fat mass. […] Fasting parameters including blood glucose, insulin, insulin resistance index (HOMA-IR), total cholesterol and triglycerides were examined pre- and post- the 4-week intervention with SR compound.

DIO mice [2] = assay: Fasting metabolic parameters in DIO mice, pre- and post-intervention; type: in vivo, C57BL/6J male mice; conditions: HFD+SR vs HFD+Veh and HFD-PFSR; pre- and post- 4-week intervention; 5 h fasted
Procedure: as §1, with “All mice were maintained in an AAALAC-accredited animal facility at the University of South Carolina, School of Medicine (Columbia, S.C.). All procedures were performed according to NIH guidelines under protocols approved by the Institutional Animal Care and Use Committee.” left out
Measurements of blood glucose, insulin, total cholesterol, and triglycerides were performed in animals fasted for 5 hours. […] The glucose level in whole blood was measured with a glucometer (Bayer, Leverkusen, Germany). Insulin concentration was determined in isolated plasma using an ELISA kit (Abcam, Cambridge, Mass.). Total cholesterol (Genzyme, Kent, United Kingdom) and triglycerides (Pointe Scientific, Canton, Mich.) were determined by colorimetric enzymatic reaction according to the manufacturer's instructions. To quantify insulin resistance, the homeostatic model assessment of insulin resistance index (HOMA-IR) was calculated as previously described.

[3] = test system: epididymal adipose tissue; assay: qRT-PCR of macrophage polarization genes in epididymal fat of DIO mice; type: in vivo, C57BL/6J male mice
Procedure: as §1
After 4 weeks of treatment, mice were euthanized for tissue collection. Tissues were removed, weighed, and immediately processed to single cell suspension, snap-frozen in liquid nitrogen and stored at −80° C., or fixed in 10% formalin.
ATM RNA was isolated by miRNeasy Mini Kit (Qiagen). […] Fold change in mRNA expression was calculated using the comparative cycle method (2^−ΔΔCt).

[4] = test system: thioglycollate-elicited peritoneal macrophages; assay: Migration of peritoneal macrophages towards CCL19; type: cell-based, mouse; conditions: SR141716A 10^−6 M vs DMSO; CCL19 500 ng/ml; 3T3-L1 conditioned medium
Procedure: The migration of macrophages to CCL19 (500 ng/ml, R&D Systems) was assessed by FluoroBlock™ permeable inserts (Corning®, Tewksbury, Mass.) and Cytation™5 imaging (BioTek, Winooski, Vt.). Peritoneal macrophages were harvested from mice primed with 1 ml of 3% (wt/vol) thioglycolate (i.p.) to elicit peritoneal exudates with macrophage number peaking on day 4. Macrophages were collected in euthanized mice by intraperitoneal wash. For tracking migration towards chemoattractants, macrophages were labeled with DilC12(3) fluorescent dye (Corning®, Tewksbury, Mass.). Macrophages were treated with conditioned media from 3T3-L1 adipocytes as described and treated either with SR141716A (10^−6 M) or DMSO as the vehicle control.
To test this, thioglycollate-elicited peritoneal macrophages were isolated and cultured them in 3T3-L1 adipocyte conditioned medium and treated them with SR141716A or vehicle. Their migration rate towards CCL19 was measured because CCL19 is the primary chemokine implicated in emigration of tissue macrophages towards draining lymph nodes.

DIO mice [5] = conditions: cited from earlier work
[6] = test system: adipose tissue macrophages (ATMs); assay: qRT-PCR and Western blot in adipose tissue macrophages (ATM) of treated DIO mice; type: in vivo, C57BL/6J male mice
Procedure: Epididymal fat pads of mice were excised and placed in gentleMACS™ C Tubes (Miltenyi Biotec, San Diego, Calif.) containing digestion medium (HBSS, 2 mg/ml collagenase (Sigma-Aldrich, St. Louis, Mo.) and 2% BSA), followed by homogenization utilizing a gentleMACS™ Dissociator (Miltenyi Biotec). After incubation at 37° C. for 30 minutes with gentle shaking, the cell suspension was filtered through a 100-μm filter and then spun at 300 g for 5 minutes to separate floating adipocytes from the stromal vascular fraction (SVF) pellet. Isolation of F4/80+ ATMs from the SVF was performed using EasySep™ FITC Positive Selection Kit (STEMCELL Technologies, Vancouver, B.C.). FITC-anti-F4/80 antibodies (Clone: BM8, BioLegend®, San Diego, Calif.) were used to label the cells for positive selection. Isolated cells were lysed for RNA analysis in QIAzol (Qiagen, Valencia, Calif.) and stored at −80° C. until RNA purification.
ATM RNA was isolated by miRNeasy Mini Kit (Qiagen). For RNA extraction from whole adipose tissue, 1 mg of adipose tissue was homogenized in RNA-Solv® Reagent with OBI's HiBind® technology reagent (Omega Bio-tek, Norcross, Ga.) and total RNA was isolated as previously described (31). RNA quality was verified by NanoDrop™ 2000C (Thermo Scientific™, Waltham, Mass.). Purified RNA (0.5-1 μg) was reverse-transcribed using miScript cDNA Synthesis Kit (Qiagen), and qRT-PCR analysis was conducted using SsoAdvanced™ Universal SYBR® Green Supermix kit (Bio-Rad, Hercules, Calif.). Fold change in mRNA expression was calculated using the comparative cycle method (2^−ΔΔCt).
Western blot analyses were carried out according to standard protocols with antibodies raised against Netrin-1 (R&D Systems, Minneapolis, Minn.) or γ-tubulin (Sigma-Aldrich, St. Louis, Mo.), which was used as a loading control.

[7] = DIO mice, 10 mg/kg daily oral gavage, 4 weeks
[8] = after 4 weeks of treatment, HFD+SR vs both HFD+Veh and HFD-PFSR, DEXA
[9] = epididymal adipose tissue of DIO mice, previous report

For `Cc1c(C(=O)NN2CCCCC2)nn(-c2ccc(Cl)cc2Cl)c1-c1ccc(Cl)cc1` [SR141716A, 5-(4-chlorophenyl)-1-(2,4-dichlorophenyl)-4-methyl-N-piperidin-1-ylpyrazole-3-carboxamide], the Klf4 expression (macrophage CB1; BMDM) was “induction of Klf4 and Stat6”, the Stat6 expression (macrophage CB1; BMDM) was “induction of Klf4 and Stat6” and the Netrin-1 secretion (macrophage CB1; macrophages, ELISA) was “reduced”. The weight loss (obese patients; obese patients, compared with placebo) was “greater weight loss”, the adverse effects (obese patients; reason for removal from the market) was “adverse psychiatric effects” and the body weight (DIO mice [1]; [7]) was “acute and persistent weight loss”. The calorie intake (DIO mice [1]; [7]) was “transient reduction of calorie intake”, the “changes in lean mass” value (DIO mice [1]; after 4 weeks of treatment, HFD+SR vs HFD+Veh and HFD-PFSR, DEXA) was “not significant” and the fat mass (DIO mice [1]; [8]) was “reduction in the fat mass and fat percentage was significant”. For the same molecule, the fat percentage (DIO mice [1]; [8]) was “reduction in the fat mass and fat percentage was significant”, the “metabolic parameters (fasting blood glucose, insulin, HOMA-IR, total cholesterol, triglycerides)” value (DIO mice [2]) was “improvement in metabolic parameters” and the “Arg1 (M2) expression” value [3] was “increased expression of Arg1”. For the same molecule, the “Nos2 (M1) expression” value [3] was “lowered Nos2 expression”, the “migration towards CCL19” value [4] was “higher migration towards CCL19” and the “number of pro-inflammatory M1 macrophages in adipose tissue” value (DIO mice [5]; HFD+SR vs HFD+Veh, previously demonstrated) was “significant decrease”. The ATM infiltration (DIO mice [5]; [9]) was “reduces both ATM infiltration and M1 polarization”, the M1 polarization (DIO mice [5]; [9]) was “reduces both ATM infiltration and M1 polarization” and the “Netrin-1 expression at protein and transcription level” value ([6]; ATM, HFD+SR vs HFD+Veh, Western blot and qRT-PCR) was “significantly reduced”. The miR-466 family expression ([6]; ATMs, microarray validated by qRT-PCR, regardless of calorie intake) was “down-regulated”, the Agap2 expression ([6]; ATMs, qRT-PCR) was “increased” and the miR-762 expression ([6]; ATMs, qRT-PCR) was “reduced”. The Unc5b expression ([6]; HFD+SR vs HFD+Veh) was “downregulated”.
